# Measured values: PMC11157491, “Novel Alaninamide Derivatives with Drug-like Potential for Development as Antiseizure and Antinociceptive Therapies—In Vitro and In Vivo Characterization” (ACS Chemical Neuroscience, 2024)
# Where two headings read alike, the source gives them in different places.
# System: mice
# Assay: Formalin test
# Format: in vivo
# Settings: Mus musculus, ip, 30 min before test
# Text: One of the most useful screening methods for testing clinically relevant molecules is the formalin model. The local injection of formalin solution induces two distinct phases of the nociceptive response, which are associated with immediate activation of nociceptors (phase I) and sensitization of spinal reflex circuits (phase II).[41] It is important to note that during the second phase, there is also an inflammatory response to tissue damage. […] Thus, this model has been successfully used to assess the analgesic efficacy of a variety of compounds, including ASMs.[42]
# The experimental groups consisted of 10 adult male Albino Swiss mice (CD-1, 18–25 g). Each animal was tested only once. Immediately after the assay, the animals were sacrificed by cervical dislocation. Behavioral measurements were observed by trained observers. […] The in vivo procedure for the model of capsaicin-induced nociception was previously reported;[67] the animals were pretreated with vehicle (10 mL/kg, negative control), and the dose–response of investigated compounds was evaluated at 12.5, 25, and 50 mg/kg.
# Data are presented as means ± standard error of the mean (SEM). […] Statistically significant differences between groups were calculated using one-way analysis of variance (ANOVA) and the post hoc Dunnett’s multiple comparison test or two-way analysis of variance (ANOVA). […]
compound,measurement,setting,value
"CC(=O)NC(C)C(=O)N1CCN(c2cccc(OC(F)(F)F)c2)CC1 (centres unmarked) [Compound 28, N-(1-oxo-1-(4-(3-(Trifluoromethoxy)phenyl)piperazin-1-yl)propan-2-yl)acetamide]",ED50,read-out: ED50 formalin test phase I (acute phase),34.3 mg/kg
same,ED50,read-out: ED50 formalin test phase II (late phase),22 mg/kg
